Laboratory results published in PubChem BioAssay (NCI).
Where “and” joins values, the source holds several entries; their conditions need not be identical. Equal values may be shown once.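 Five concentrations, 48 hours, 96-well plates. Abbreviation: GI50, concentration required for 50% inhibition of growth. Definition used: TGI = concentration required for complete inhibition of growth.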

Tests used:
Test in all cases: NCI-60 cell line screen, 48 h
HS 578T breast = tested on: HS 578T breast
CCRF-CEM leukemia = tested on: CCRF-CEM leukemia
HL-60(TB) leukemia = tested on: HL-60(TB) leukemia
HOP-62 NSCLC = tested on: HOP-62 NSCLC
SR leukemia = tested on: SR leukemia
SNB-75 CNS = tested on: SNB-75 CNS
UO-31 renal = tested on: UO-31 renal
EKVX NSCLC = tested on: EKVX NSCLC

| SMILES | GI50 (HS 578T breast) | TGI (HS 578T breast) [µM] | GI50 (CCRF-CEM leukemia) | TGI (CCRF-CEM leukemia) [µM] | GI50 (HL-60(TB) leukemia) | TGI (HL-60(TB) leukemia) [µM] | GI50 (HOP-62 NSCLC) | TGI (HOP-62 NSCLC) [µM] | GI50 (SR leukemia) | TGI (SR leukemia) [µM] | GI50 (SNB-75 CNS) [µM] | TGI (SNB-75 CNS) [µM] | GI50 (UO-31 renal) | TGI (UO-31 renal) [µM] | GI50 (EKVX NSCLC) [µM] | TGI (EKVX NSCLC) [µM] |
| --- | --- | --- | --- | --- | --- | --- | --- | --- | --- | --- | --- | --- | --- | --- | --- | --- |
| COc1cc(C2C3=C(COC3=O)Nc3c2ccc2c3CCCC2)cc2c1OCO2 (stereo unspecified) | 0.0367 µM | 45.5 | 0.0367 µM | > 100 | 0.0316 µM | 0.09 | 0.0426 µM | 18.7 | 0.0354 µM | > 21 | 0.0251 | 14.5 | 0.337 µM | > 100 | 0.0908 | > 100 |
| Cc1[nH]nc2c1N=C(c1ccccc1F)c1cc(C(N)=O)ccc1N2 | 0.511 µM | 7.25 | 1.15 µM | > 14.9 | 5.97 µM | 14.4 | 3.79 µM | 24.4 | 0.191 µM | 8.2 | 0.0838 | 1.69 | 4.31 µM | > 21.1 | – | – |
| CC(C)CC(Nc1c(O)ccc2ccccc12)C(=O)O (stereo unspecified) | – | 95.9 | – | > 100 | – | > 100 | – | > 100 | – | > 100 | – | > 100 | – | > 100 | – | 58.3 |
| Cc1cc(C(=O)NC(CCC(=O)O)C(=O)O)sc1CCC1CNc2nc(N)[nH]c(=O)c2C1 (stereo unspecified) | 2.13 µM and 8.89 µM | > 100 | 0.0123 µM and 0.0273 µM | > 100 | 0.0366 µM and 0.0558 µM | > 100 | 0.0533 µM and 0.0806 µM | > 100 | < 0.0156 µM and 0.0263 µM | > 100 | – | > 100 | 0.0319 µM and 0.0592 µM | > 100 | – | – |
| COc1c(-c2ccc(O)c(O)c2)oc2c(O)c(O)cc(O)c2c1=O | – | > 100 | – | 97.7 | – | – | – | 67.4 | – | 50.8 | – | – | – | > 100 | – | > 100 |
| CCCCNC(=O)Oc1ccc(/C(=C(/C)Cc2ccc(OC)cc2)c2ccc(OCCN3CCCC3)cc2)cc1 | 2.11 µM | 4.81 | 2.57 µM | 7.41 | 1.64 µM | 3.82 | 2.65 µM | 11.3 | 1.86 µM | 5.44 | 1.56 | 4.5 | 1.65 µM | 3.22 | 1.86 | 5.5 |
| Cc1ccn2c(CCc3nnc4cc(C)ccn34)nnc2c1 | – | > 100 | – | – | – | 0.623 | – | > 100 | – | > 100 | – | > 100 | – | > 100 | – | > 100 |
| OCCNCCCOc1ccc2ncnc(Nc3ccc(Oc4cccc(C(F)(F)F)c4)c(Cl)c3)c2c1 | – | – | 1.66 µM | 4.42 | – | – | – | – | 1.62 µM | 4.65 | 1.48 | 2.86 | 1.29 µM | 2.57 | 1.24 | 2.76 |
| CN1CCN(Cc2ccc(NC(=O)c3cncc(C#Cc4cncc5nccnc45)c3)cc2C(F)(F)F)CC1 | 1.13 µM | 7.89 | 3.98 µM | 35 | 0.342 µM | 4.76 | 2.68 µM | 9.8 | 2.98 µM | 28.5 | 5.04 | 11.5 | 2.16 µM | > 50 | > 50 | > 50 |
| C[C@]1(Cn2ccnn2)C(C(=O)O)N2C(=O)CC2S1(=O)=O (stereo partly specified) | > 100 µM | > 100 | – | – | > 100 µM | > 100 | > 100 µM | > 100 | > 100 µM | > 100 | > 100 | > 100 | > 100 µM | > 100 | – | – |
| COc1ccc2c(Cl)cc(NC(=O)Nc3c(C)cccc3C)nc2c1 | – | – | – | – | > 100 µM | > 100 | 3.91 µM | 15.3 | 27.5 µM | > 100 | 1.47 | 6.01 | 3 µM | 12.7 | – | – |
| C/C(=N\NC(=S)N1CC2CCC(CC2)C1)c1cccc(C)n1 | – | 27 | 0.000124 µM | – | 0.00016 µM | 4.45 | 0.397 µM | 14.2 | 0.21 µM | > 32.9 | – | 13.1 | – | 4.94 | 0.326 | 4.63 |
| COC(=O)/C=C1/SC(N2N=C(c3cccs3)CC2c2ccc(F)cc2)=NC1=O (stereo unspecified) | 4.46 µM | > 100 | 3 µM | 8.73 | 2.88 µM | 6.35 | 1.87 µM | 4.29 | 2.23 µM | 11.8 | 1.64 | 7.28 | 1.49 µM | 2.9 | 3.49 | 23.6 |
| CC(=O)[CH-]C(=O)c1ccccc1.CC(=O)[CH-]C(=O)c1ccccc1.Cl.[O-]c1ccccn1.[O-]c1ccccn1.[Ti+4] | – | – | – | – | > 100 µM | > 100 | > 100 µM | > 100 | – | – | > 100 | > 100 | > 100 µM | > 100 | > 100 | > 100 |
| c1cncc(C2Nc3cccc4cccc(c34)N2)c1 | 73.4 µM | > 100 | 22.6 µM | > 100 | 36.6 µM | > 100 | 42.5 µM | > 100 | 27.5 µM | > 100 | 17.9 | > 100 | 11.7 µM | 27.4 | 36 | > 100 |
| NC(N)=Nc1nc2ccc([N+](=O)[O-])cc2[nH]1 | – | > 100 | – | > 100 | – | > 100 | – | > 100 | – | > 100 | – | > 100 | – | > 100 | – | > 100 |
| N#Cc1c(N)nc(N)nc1N[C@H](c1nc2c(F)ccc(Cl)c2c(=O)n1-c1cccnc1)C1CC1 | 2.53 µM | 57.7 | 7.35 µM | 95.1 | 2.28 µM | 82.8 | 3.62 µM | > 100 | 13.4 µM | 52.5 | 0.171 | 6.9 | 2.34 µM | 21.1 | 1.88 | 37.2 |
| CCCCC(=O)N/N=C/c1c(O)ccc2ccccc12 | 6.54 µM | > 100 | 0.267 µM | 1.28 | 0.452 µM | – | 7.95 µM | > 100 | 0.45 µM | 3.57 | 1.57 | > 100 | 1.87 µM | 28 | 1.75 | 7.92 |
